Assay results from patent US9695155B2, “Herbicidal substituted pyrimidinyloxy benzene compounds” (E. I. DU PONT DE NEMOURS AND COMPANY, priority 2013, dated 2017).

How the values were obtained:
kochia = experiment: Test C postemergence; type: in vivo, Kochia scoparia
Procedure, shortened: (§1)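 Seeds are planted in blended loam soil and sand and treated preemergence, while seedlings in a peat moss/vermiculite medium receive postemergence sprays at 2 to 18 cm height. All plants stay in the greenhouse for 13 to 15 days before visual comparison with controls on a 0–100 scale.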

corn = experiment: Test A preemergence; type: in vivo, Zea mays
Procedure, shortened: (§2)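 Greenhouse pot test, loam/sand soil. Formulation: non-phytotoxic solvent mix plus surfactant. Pre: directed spray onto soil after sowing. Post: plants at 1–2 leaf, 2–10 cm. Rated visually vs untreated controls at ~10 d, 0 (no effect) to 100 (complete control).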

large (Lg) crabgrass = experiment: Test A preemergence; type: in vivo, Digitaria sanguinalis
Procedure, shortened: as §2

rice = experiment: Test B flooded paddy test; type: in vivo, Oryza sativa; conditions: Flood, 250 g ai/ha, 0 to 100 scale where 0 is no effect and 100 is complete control
Procedure, shortened: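 Seedlings are raised to two leaves, flooded to a depth of 3 cm and dosed by adding the compound to the floodwater. Water level is kept constant, and plants are scored visually versus controls 13–15 days later (0 = no effect, 100 = complete control).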

ragweed = experiment: Test C postemergence; type: in vivo, Ambrosia elatior
Text: (§3) Seeds of plant species selected from blackgrass (Alopecurus myosuroides), Italian ryegrass (Lolium multiflorum), wheat, winter (winter wheat, Triticum aestivum), galium (catchweed bedstraw, Galium aparine), corn (Zea mays), large (Lg) crabgrass (Digitaria sanguinalis), giant foxtail (Setaria faberii), johnsongrass (Sorghum halepense), lambsquarters (Chenopodium album), morningglory (Ipomoea coccinea), yellow nutsedge (Cyperus esculentus), pigweed (Amaranthus retroflexus), ragweed (common ragweed, Ambrosia elatior), soybean (Glycine max), barnyardgrass (Echinochloa crus-galli), oilseed rape (Brassica napus), waterhemp (common waterhemp, Amaranthus rudis), kochia (Kochia scoparia), wild oat (Avena fatua), surinam grass (Brachiaria decumbens), foxtail, green (green foxtail, Setaria viridis), goosegrass (Eleusine indica), bromegrass, downy (downy bromegrass, Bromus tectorum), nightshade (eastern black nightshade, Solanum ptycanthum), cocklebur (common cocklebur, Xanthium strumarium), cupgrass, woolly (woolly cupgrass, Eriochloa villosa), bermudagrass (Cynodon dactylon), sunflower, (common oilseed sunflower, Helianthus annuus), Russian thistle (Salsola kali), and velvetleaf (Abutilon theophrasti) were planted into a blend of loam soil and sand and treated preemergence with test chemicals formulated in a non-phytotoxic solvent mixture which included a surfactant.
(§4) At the same time, plants selected from these crop and weed species and also barley, winter (winter barley, Hordeum vulgare), windgrass (Apera spica-venti), chickweed (common chickweed, Stellaria media), deadnettle (henbit deadnettle, Lamium amplexicaule), and canarygrass (littleseed canarygrass, Phalaris minor) were planted in pots containing Redi-Earth® planting medium (Scotts Company, 14111 Scottslawn Road, Marysville, Ohio 43041) comprising spaghnum peat moss, vermiculite, wetting agent and starter nutrients and treated with postemergence applications of test chemicals formulated in the same manner. Plants ranged in height from 2 to 18 cm (1- to 4-leaf stage) for postemergence treatments. Treated plants and controls were maintained in a greenhouse for 13 to 15 days, after which time all species were compared to controls and visually evaluated. Plant response ratings, summarized in Table C, are based on a scale of 0 to 100 where 0 is no effect and 100 is complete control. A dash (-) response means no test result.

wheat, winter = experiment: Test C postemergence; type: in vivo, Triticum aestivum
Text: as §3, §4

wild oat = experiment: Test C postemergence; type: in vivo, Avena fatua
Procedure, shortened: as §1

[1] = Postemergence, 31 g ai/ha, scale 0 to 100 (0 no effect, 100 complete control), 13 to 15 days
[2] = Postemergence, 62 g ai/ha, scale 0 to 100 (0 no effect, 100 complete control)
[3] = 125 g ai/ha, 0 to 100 scale where 0 is no effect and 100 is complete control
[4] = 500 g ai/ha, 0 to 100 scale, 0 no effect, 100 complete control, approx. 10 days
[5] = 1000 g ai/ha, 0 to 100 scale, 0 no effect, 100 complete control
[6] = 8 g ai/ha, postemergence, 0 is no effect, 100 is complete control
[7] = 16 g ai/ha, postemergence, 0 is no effect, 100 is complete control

Fc1cnc(Oc2ccccc2-n2cc(Br)cn2)nc1 [Compound 10, 2-[2-(4-bromo-1H-pyrazol-1-yl)phenoxy]-5-fluoropyrimidine]
pest or weed control at 125 g/ha (kochia; Bassia scoparia, post-emergence, 125 g ai/ha, postemergence, read-out: Plant response rating (0 to 100), Kochia): 95%
pest or weed control at 250 g/ha (kochia; Bassia scoparia, post-emergence, 250 g ai/ha, postemergence, read-out: Plant response rating (0 to 100), Kochia): 98%
pest or weed control at 31 g/ha (kochia; Bassia scoparia, post-emergence, Postemergence, 31 g ai/ha, scale 0 to 100 (0 no effect, 100 complete control), 13 to 15 days, read-out: Plant response rating, Kochia): 20%
pest or weed control at 62 g/ha (kochia; Bassia scoparia, post-emergence, Postemergence, 62 g ai/ha, scale 0 to 100 (0 no effect, 100 complete control), read-out: Plant response rating, Kochia): 40%
plant injury at 125 g/ha (corn; Zea mays, pre-emergence, 240 h, 125 g ai/ha, 0 to 100 scale where 0 is no effect and 100 is complete control, read-out: Corn plant response rating): 0%
plant injury at 500 g/ha (corn; Zea mays, pre-emergence, 240 h, 500 g ai/ha, 0 to 100 scale, 0 no effect, 100 complete control, approx. 10 days, read-out: Corn plant response rating): 20%
pest or weed control at 125 g/ha (large (Lg) crabgrass; Digitaria sanguinalis, pre-emergence, 240 h, 125 g ai/ha, 0 to 100 scale where 0 is no effect and 100 is complete control, read-out: Crabgrass, Large plant response rating): 100%
pest or weed control at 500 g/ha (large (Lg) crabgrass; Digitaria sanguinalis, pre-emergence, 240 h, 500 g ai/ha, 0 to 100 scale, 0 no effect, 100 complete control, approx. 10 days, read-out: Crabgrass, Large plant response rating): 100%
plant injury at 250 g/ha (rice; Oryza sativa, read-out: Plant response rating, Rice): 0%
pest or weed control at 125 g/ha (ragweed; Ambrosia artemisiifolia, post-emergence, 125 g ai/ha, postemergence, read-out: Plant response rating (0 to 100), Ragweed): 55%
pest or weed control at 250 g/ha (ragweed; Ambrosia artemisiifolia, post-emergence, 250 g ai/ha, postemergence, read-out: Plant response rating (0 to 100), Ragweed): 80%
pest or weed control at 31 g/ha (ragweed; Ambrosia artemisiifolia, post-emergence, Postemergence, 31 g ai/ha, scale 0 to 100 (0 no effect, 100 complete control), 13 to 15 days, read-out: Plant response rating, Ragweed): 50%
pest or weed control at 62 g/ha (ragweed; Ambrosia artemisiifolia, post-emergence, Postemergence, 62 g ai/ha, scale 0 to 100 (0 no effect, 100 complete control), read-out: Plant response rating, Ragweed): 50%
plant injury at 125 g/ha (wheat, winter; Triticum aestivum, post-emergence, 125 g ai/ha, postemergence, read-out: Plant response rating (0 to 100), Wheat): 5%
plant injury at 250 g/ha (wheat, winter; Triticum aestivum, post-emergence, 250 g ai/ha, postemergence, read-out: Plant response rating (0 to 100), Wheat): 10%
plant injury at 31 g/ha (wheat, winter; Triticum aestivum, post-emergence, Postemergence, 31 g ai/ha, scale 0 to 100 (0 no effect, 100 complete control), 13 to 15 days, read-out: Plant response rating, Wheat): 5%
plant injury at 62 g/ha (wheat, winter; Triticum aestivum, post-emergence, Postemergence, 62 g ai/ha, scale 0 to 100 (0 no effect, 100 complete control), read-out: Plant response rating, Wheat): 5%
pest or weed control at 125 g/ha (wild oat; Avena fatua, post-emergence, 125 g ai/ha, postemergence, read-out: Plant response rating (0 to 100), Oat, Wild): 5%
pest or weed control at 250 g/ha (wild oat; Avena fatua, post-emergence, 250 g ai/ha, postemergence, read-out: Plant response rating (0 to 100), Oat, Wild): 30%
pest or weed control at 31 g/ha (wild oat; Avena fatua, post-emergence, Postemergence, 31 g ai/ha, scale 0 to 100 (0 no effect, 100 complete control), 13 to 15 days, read-out: Plant response rating, Oat, Wild): 0%
pest or weed control at 62 g/ha (wild oat; Avena fatua, post-emergence, Postemergence, 62 g ai/ha, scale 0 to 100 (0 no effect, 100 complete control), read-out: Plant response rating, Oat, Wild): 0%

N#Cc1cccc(Oc2ncc(F)cn2)c1-n1cc(Br)cn1 [Compound 62]
Plant response rating (0 to 100), Kochia (kochia; 125 g ai/ha, postemergence): 90
Plant response rating (0 to 100), Kochia (kochia; 250 g ai/ha, postemergence): 95
Plant response rating, Kochia (kochia; [1]): 80
Plant response rating, Kochia (kochia; [2]): 90
Plant response rating, Corn (corn; [3]): 0
Corn plant response rating (corn; [4]): 90
Plant response rating, Crabgrass, Large (large (Lg) crabgrass; [3]): 90
Crabgrass, Large plant response rating (large (Lg) crabgrass; [4]): 100
Plant response rating, Rice (rice): 0
Plant response rating (0 to 100), Ragweed (ragweed; 125 g ai/ha, postemergence): 50
Plant response rating (0 to 100), Ragweed (ragweed; 250 g ai/ha, postemergence): 50
Plant response rating, Ragweed (ragweed; [1]): 40
Plant response rating, Ragweed (ragweed; [2]): 40
Plant response rating (0 to 100), Wheat (wheat, winter; 125 g ai/ha, postemergence): 5
Plant response rating (0 to 100), Wheat (wheat, winter; 250 g ai/ha, postemergence): 20
Plant response rating, Wheat (wheat, winter; [1]): 0
Plant response rating, Wheat (wheat, winter; [2]): 0
Plant response rating (0 to 100), Oat, Wild (wild oat; 125 g ai/ha, postemergence): 30
Plant response rating (0 to 100), Oat, Wild (wild oat; 250 g ai/ha, postemergence): 35
Plant response rating, Oat, Wild (wild oat; [1]): 0
Plant response rating, Oat, Wild (wild oat; [2]): 0

Clc1cnc(Oc2cccc(Br)c2-n2cc(Br)cn2)nc1 [Compound 65]
Kochia plant response rating (kochia; 16 g ai/ha, postemergence, visual rating, scale 0 to 100 (0 no effect, 100 complete control), 13 to 15 days): 90
Plant response rating (0 to 100), Kochia (kochia; 125 g ai/ha, postemergence): 98
Plant response rating, Kochia (kochia; [1]): 90
Plant response rating, Kochia (kochia; [2]): 98
Plant response rating, Corn (corn; [5]): 40
Plant response rating, Crabgrass, Large (large (Lg) crabgrass; [5]): 100
Plant response rating, Rice (rice): 0
Plant response rating (0 to 100), Ragweed (ragweed; 125 g ai/ha, postemergence): 35
Plant response rating, Ragweed (ragweed; [1]): 5
Plant response rating, Ragweed (ragweed; [2]): 25
Plant response rating (0 to 100), Wheat (wheat, winter; 125 g ai/ha, postemergence): 10
Plant response rating, Wheat (wheat, winter; [1]): 0
Plant response rating, Wheat (wheat, winter; [2]): 5
Plant response rating (0 to 100), Oat, Wild (wild oat; 125 g ai/ha, postemergence): 5
Plant response rating, Oat, Wild (wild oat; [1]): 0
Plant response rating, Oat, Wild (wild oat; [2]): 5

N#Cc1cccc(Oc2ncc(Cl)cn2)c1-n1cnc(Br)c1 [Compound 74]
Plant response rating (0 to 100), Kochia (kochia; 125 g ai/ha, postemergence): 90
Plant response rating (0 to 100), Kochia (kochia; 250 g ai/ha, postemergence): 90
Plant response rating, Kochia (kochia; [1]): 80
Plant response rating, Kochia (kochia; [2]): 90
Plant response rating, Corn (corn; [3]): 0
Corn plant response rating (corn; [4]): 40
Plant response rating, Crabgrass, Large (large (Lg) crabgrass; [3]): 100
Crabgrass, Large plant response rating (large (Lg) crabgrass; [4]): 100
Plant response rating, Rice (rice): 0
Plant response rating (0 to 100), Ragweed (ragweed; 125 g ai/ha, postemergence): 40
Plant response rating (0 to 100), Ragweed (ragweed; 250 g ai/ha, postemergence): 60
Plant response rating, Ragweed (ragweed; [1]): 40
Plant response rating, Ragweed (ragweed; [2]): 40
Plant response rating (0 to 100), Wheat (wheat, winter; 125 g ai/ha, postemergence): 0
Plant response rating (0 to 100), Wheat (wheat, winter; 250 g ai/ha, postemergence): 5
Plant response rating, Wheat (wheat, winter; [1]): 0
Plant response rating, Wheat (wheat, winter; [2]): 0
Plant response rating (0 to 100), Oat, Wild (wild oat; 125 g ai/ha, postemergence): 10
Plant response rating (0 to 100), Oat, Wild (wild oat; 250 g ai/ha, postemergence): 10
Plant response rating, Oat, Wild (wild oat; [1]): 0
Plant response rating, Oat, Wild (wild oat; [2]): 0

CC(=NO)c1cn(-c2c(Br)cccc2Oc2ncc(Cl)cn2)nn1 [Compound 115]
Plant response rating (0 to 100), Kochia (kochia; [6]): 0
Plant response rating (0 to 100), Kochia (kochia; [7]): 0
Plant response rating, Corn (corn; [5]): 60
Plant response rating, Crabgrass, Large (large (Lg) crabgrass; [5]): 100
Plant response rating, Rice (rice): 0
Plant response rating (0 to 100), Ragweed (ragweed; [6]): 5
Plant response rating (0 to 100), Ragweed (ragweed; [7]): 5
Plant response rating (0 to 100), Wheat (wheat, winter; [6]): 0
Plant response rating (0 to 100), Wheat (wheat, winter; [7]): 0
Plant response rating (0 to 100), Oat, Wild (wild oat; [6]): 0
Plant response rating (0 to 100), Oat, Wild (wild oat; [7]): 0
